Measurements: patent US9156877B2, “17-hydroxy-17-pentafluorethyl-estra-4,9(10)-dien-11-benzylidene derivatives, methods for the production thereof and use thereof for treating diseases” (Bayer Intellectual Property GmbH, priority 2009, dated 2015)
Converted amounts (≈) assume the structure as drawn.

Assays:
[1] = Metabolic stability in human liver microsomes; format: in vitro ADME; conditions: 1 μM, well-stirred model
Protocol: (§1) Determination of Metabolic Stability in Human and Rat Liver Microsomes
Isolated human liver microsomes (HLM) were used to assess the metabolic stability of compounds of general formula I.
(§2) The incubations were conducted with 2.4 ml of HLM solution (protein content 0.5 mg/ml), 30 μl of the test compound (final concentration 1 μM) and 0.6 ml of the cofactor mixture (═NADPH-generating system composed of 3 IU glucose-6-phosphate dehydrogenase, 14.6 mg glucose-6-phosphate, 1.2 mg NADP) at 37° C. in 100 mM phosphate buffer at pH 7.4. Samples were taken at 6 time points (2-60 min) and precipitated with an equal volume of methanol, and the recovery of the test substances used in the supernatant was determined by LC-MS/MS analysis. The half-life of substance degradation determined therefrom was used to calculate what is called the intrinsic clearance of the substance in the liver microsome preparation. […] In addition, under the assumptions that (i) absorption of the test substance is 100%, and (ii) the first pass is completely reflected by liver microsome metabolism, a maximum oral bioavailability (Fmax) was calculated.

[2] = Solubility in aqueous medium at pH 7.4; format: physicochemical; conditions: aqueous medium, pH 7.4, aqueous buffer
Excerpt: In addition, some compounds have an unusually good solubility, for this active ingredient class, in aqueous medium under physiological conditions (Table 2).

[3] = Metabolic stability in rat liver microsomes; format: in vitro ADME; conditions: well-stirred model
Protocol: as §1, §2

[4] = target: T1, human progesterone receptor B (Homo sapiens, UniProt P06401); experiment: Progesterone receptor-antagonistic action in stably transfected SK-N-MC cells with MMTV-LUC reporter (PR-B); format: cell-based; conditions: antagonistic potency against 0.1 nmol/l promegestone, 24 hours, luciferase
T1 construct: expressed in transfected cells; host or cells: SK-N-MC human neuroblastoma cells, stably transfected with pRChPR-B-neo and pMMTV-LUC
T1 sequence (P06401 1-933): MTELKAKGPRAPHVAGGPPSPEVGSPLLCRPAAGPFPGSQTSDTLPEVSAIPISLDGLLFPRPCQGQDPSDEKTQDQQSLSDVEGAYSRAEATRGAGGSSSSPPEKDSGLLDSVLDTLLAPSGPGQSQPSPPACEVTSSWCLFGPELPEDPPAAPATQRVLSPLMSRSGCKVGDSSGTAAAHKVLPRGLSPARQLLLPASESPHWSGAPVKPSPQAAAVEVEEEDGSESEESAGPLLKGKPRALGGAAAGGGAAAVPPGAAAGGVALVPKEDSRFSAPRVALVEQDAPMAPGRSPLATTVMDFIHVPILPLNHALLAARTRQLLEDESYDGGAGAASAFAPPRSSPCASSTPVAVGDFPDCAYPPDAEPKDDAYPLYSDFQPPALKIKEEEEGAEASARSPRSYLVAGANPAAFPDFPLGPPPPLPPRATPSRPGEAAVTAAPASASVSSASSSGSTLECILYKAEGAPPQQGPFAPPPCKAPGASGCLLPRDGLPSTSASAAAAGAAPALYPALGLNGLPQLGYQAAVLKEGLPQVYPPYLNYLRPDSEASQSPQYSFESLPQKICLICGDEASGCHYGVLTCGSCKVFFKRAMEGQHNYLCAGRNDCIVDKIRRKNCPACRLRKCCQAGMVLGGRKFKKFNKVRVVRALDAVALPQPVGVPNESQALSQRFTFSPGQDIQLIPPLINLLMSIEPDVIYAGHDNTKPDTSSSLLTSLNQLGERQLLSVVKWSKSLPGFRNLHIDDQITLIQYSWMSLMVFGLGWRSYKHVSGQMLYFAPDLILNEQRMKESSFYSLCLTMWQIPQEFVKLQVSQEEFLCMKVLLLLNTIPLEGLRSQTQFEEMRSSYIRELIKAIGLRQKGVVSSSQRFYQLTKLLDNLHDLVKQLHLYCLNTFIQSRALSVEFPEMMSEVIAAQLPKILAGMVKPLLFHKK
Protocol: (§3) Determination of Progesterone Receptor-Antagonistic Action in Stable Transfectants of Human Neuroblastoma Cells (SK-N-MC Cells) with the Human Progesterone A or Progesterone B Receptor and an MN-LUC Reporter Construct
(§4) SK-N-MC cells (human neuroblastoma cells) which have been stably transfected with plasmids expressing the human progesterone receptor B (pRChPR-B-neo) or the human progesterone receptor A (pRChPR-A-neo) and a reporter construct (pMMTV-LUC) were incubated for 24 hours either in the absence (negative control) or in the presence of ascending amounts of the particular test compound (0.01 nmol/l, 0.1 nmol/l, 1 nmol/l, 10 nmol/l, 100 nmol/l and […]), in order to determine the agonistic efficacy. As a positive control of the reporter gene induction, the cells were treated with the synthetic gestagen promegestone (0.01 nmol/l, 0.1 nmol/l, 1 nmol/l, 10 nmol/l, 100 nmol/l and […]). To determine the antagonistic activity, the cells were treated with 0.1 nmol/l promegestone and additionally with ascending amounts of the particular test compound (0.01 nmol/l, 0.1 nmol/l, 1 nmol/l, 10 nmol/l, 100 nmol/l and […]). The activity of the reporter gene LUC (LUC=luciferase) was determined in the cell lysates and measured as RLU (relative light units). All measurements are reported as % efficacy and as EC50 and IC50 concentrations.

[5] = target: T2, human progesterone receptor A (Homo sapiens, UniProt P06401); experiment: Progesterone receptor-antagonistic action in stably transfected SK-N-MC cells with MMTV-LUC reporter (PR-A); format: cell-based; conditions: antagonistic potency against 0.1 nmol/l promegestone, 24 hours, luciferase
T2 construct: expressed in transfected cells; host or cells: SK-N-MC human neuroblastoma cells, stably transfected with pRChPR-A-neo and pMMTV-LUC
T2 sequence (P06401 1-769 isoform P06401-2): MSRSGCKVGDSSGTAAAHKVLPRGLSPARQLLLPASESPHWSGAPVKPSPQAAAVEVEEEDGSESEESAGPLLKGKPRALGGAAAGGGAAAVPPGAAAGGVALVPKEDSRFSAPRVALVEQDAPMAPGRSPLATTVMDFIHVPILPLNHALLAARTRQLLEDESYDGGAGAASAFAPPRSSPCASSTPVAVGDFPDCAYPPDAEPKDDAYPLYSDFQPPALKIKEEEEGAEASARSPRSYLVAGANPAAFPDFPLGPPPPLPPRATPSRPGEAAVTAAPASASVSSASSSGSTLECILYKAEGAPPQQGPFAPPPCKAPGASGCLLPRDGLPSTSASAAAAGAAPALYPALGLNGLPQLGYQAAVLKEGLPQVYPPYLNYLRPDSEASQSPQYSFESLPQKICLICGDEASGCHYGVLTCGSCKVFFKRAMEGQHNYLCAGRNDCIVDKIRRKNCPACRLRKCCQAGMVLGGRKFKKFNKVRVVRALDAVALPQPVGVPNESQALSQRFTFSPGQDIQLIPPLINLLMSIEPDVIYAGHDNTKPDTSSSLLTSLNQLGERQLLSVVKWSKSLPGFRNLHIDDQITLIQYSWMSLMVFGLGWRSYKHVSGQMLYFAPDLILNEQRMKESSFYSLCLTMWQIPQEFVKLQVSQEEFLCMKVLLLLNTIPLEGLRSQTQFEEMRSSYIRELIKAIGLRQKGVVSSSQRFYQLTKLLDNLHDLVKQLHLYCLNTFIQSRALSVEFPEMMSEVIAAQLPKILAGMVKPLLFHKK
Protocol: as §3, §4

SMILES | Predicted clearance [l/h/kg] Human [1] | solubility [2] | Predicted clearance [l/h/kg] Rat [3] | IC50 [4] | IC50 [5]
C[C@]12C[C@H](c3ccc(/C=N/OCc4ccc(Cl)c(Cl)c4)cc3)C3=C4CCC(=O)C=C4CC[C@H]3[C@@H]1CC[C@@]2(O)C(F)(F)C(F)(F)F [Example 37, 4-((8S,11R,13S,14S,17S)-17-hydroxy-13-methyl-3-oxo-17-pentafluoroethyl-2,3,6,7,8,11,12,13,14,15,16,17-dodecahydro-1H-cyclopenta[a]phenanthren-11-yl)benzaldehyde O-(3,4-dichlorobenzyl)oxime] |  |  |  | 0.5 nM | 0.4 nM
COC(=O)c1cccc(/C=C/c2ccc([C@H]3C[C@@]4(C)[C@@H](CC[C@@]4(O)C(F)(F)C(F)(F)F)[C@@H]4CCC5=CC(=O)CCC5=C43)cc2)c1 [Example 30, 3-{(E)-2-[4-((8S,11R,13S,14S,17S)-17-hydroxy-13-methyl-3-oxo-17-pentafluoroethyl-2,3,6,7,8,11,12,13,14,15,16,17-dodecahydro-1H-cyclopenta[a]phenanthren-11-yl)phenyl]vinyl}benzoic acid methyl ester] |  |  |  | 0.08 nM | 0.09 nM
CC(C)(C)c1ccc(NC(=O)NC/C=C/c2ccc([C@H]3C[C@@]4(C)C(CC[C@@]4(O)C(F)(F)C(F)(F)F)C4CCC5=CC(=O)CCC5=C43)cc2)cc1 (some centres unmarked) [Example 47] |  |  |  | 0.3 nM | 0.8 nM
C[C@]12C[C@H](c3ccc(/C=N/OCC(=O)O)cc3)C3=C4CCC(=O)C=C4CC[C@H]3[C@@H]1CC[C@@]2(O)C(F)(F)C(F)(F)F [Example 34, [1-[4-((8S,11R,13S,14S,17S)-17-hydroxy-13-methyl-3-oxo-17-pentafluoroethyl-2,3,6,7,8,11,12,13,14,15,16,17-dodecahydro-1H-cyclopenta[a]phenanthren-11-yl)phenyl]meth-(E)-ylideneaminooxy]acetic acid] |  |  |  | 2.8 nM | 3.9 nM
C[C@]12C[C@H](c3ccc(/C=C/CNC(=O)NCC(=O)O)cc3)C3=C4CCC(=O)C=C4CCC3C1CC[C@@]2(O)C(F)(F)C(F)(F)F (stereo partly drawn) [Example 52, 3-(3-{(E)-3-[4-((8S,11R,13S,14S,17S)-17-hydroxy-13-methyl-3-oxo-17-pentafluoroethyl-2,3,6,7,8,11,12,13,14,15,16,17-dodecahydro-1H-cyclopenta[a]phenanthren-11-yl)phenyl]allyl}ureido)acetic acid] |  |  |  | 2 nM | 3 nM

More lines, in order of falling IC50 [4], values ahead:

Predicted clearance [l/h/kg] Human [1] | solubility [2] | Predicted clearance [l/h/kg] Rat [3] | IC50 [4] | IC50 [5] | SMILES
0.7 L/h/kg |  | 0.8 L/h/kg | 0.8 nM | 0.7 nM | C[C@]12C[C@H](c3ccc(CO)cc3)C3=C4CCC(=O)C=C4CC[C@H]3[C@@H]1CC[C@@]2(O)C(F)(F)C(F)(F)F [Ref. 1, (8S,11R,13S,14S,17S)-17-hydroxy-11-[4-(hydroxymethyl)phenyl]-13-methyl-17-pentafluoroethyl-1,2,6,7,8,11,12,13,14,15,16,17-dodecahydrocyclopenta[a]phenanthren-3-one, reference compound]
 |  |  | 0.1 nM | 0.09 nM | CC(C)CO/N=C/c1ccc([C@H]2C[C@@]3(C)[C@@H](CC[C@@]3(O)C(F)(F)C(F)(F)F)[C@@H]3CCC4=CC(=O)CCC4=C32)cc1 [Example 38, 4-((8S,11R,13S,14S,17S)-17-hydroxy-13-methyl-3-oxo-17-pentafluoroethyl-2,3,6,7,8,11,12,13,14,15,16,17-dodecahydro-1H-cyclopenta[a]phenanthren-11-yl)benzaldehyde O-isobutyl oxime]
 |  |  | 0.1 nM | 0.1 nM | C[C@]12C[C@H](c3ccc(/C=C/CNC(=O)Nc4ccc(F)cc4)cc3)C3=C4CCC(=O)C=C4CC[C@H]3[C@@H]1CC[C@@]2(O)C(F)(F)C(F)(F)F [Example 44, 1-(4-fluorophenyl)-3-{(E)-3-[4-((8S,11R,13S,14S,17S)-17-hydroxy-13-methyl-3-oxo-17-pentafluoroethyl-2,3,6,7,8,11,12,13,14,15,16,17-dodecahydro-1H-cyclopenta[a]phenanthren-11-yl)phenyl]allyl}urea]
 |  |  | 0.09 nM | 0.1 nM | CCOC(=O)c1ccc(NC(=O)NC/C=C/c2ccc([C@H]3C[C@@]4(C)[C@@H](CC[C@@]4(O)C(F)(F)C(F)(F)F)[C@@H]4CCC5=CC(=O)CCC5=C43)cc2)cc1 [Example 55, 4-(3-{(E)-3-[4-((8S,11R,13S,14S,17S)-17-hydroxy-13-methyl-3-oxo-17-pentafluoroethyl-2,3,6,7,8,11,12,13,14,15,16,17-dodecahydro-1H-cyclopenta[a]phenanthren-11-yl)phenyl]allyl}ureido)benzoic acid ethyl ester]
0.90 L/h/kg | 6 µg/mL (≈ 12.2 µM) | 1.9 L/h/kg | 0.012 nM |  | C=Cc1ccc([C@H]2C[C@@]3(C)[C@@H](CC[C@@]3(O)C(F)(F)C(F)(F)F)[C@@H]3CCC4=CC(=O)CCC4=C32)cc1 [Example 1, (8S,11R,13S,14S,17S)-17-hydroxy-13-methyl-17-pentafluoroethyl-11-(4-vinylphenyl)-1,2,6,7,8,11,12,13,14,15,16,17-dodecahydrocyclopenta[a]phenanthren-3-one]
 |  |  | 0.01 nM | 0.01 nM | C[C@]12C[C@H](c3ccc(/C=C/c4ccc(S(C)(=O)=O)cc4)cc3)C3=C4CCC(=O)C=C4CC[C@H]3[C@@H]1CC[C@@]2(O)C(F)(F)C(F)(F)F [Example 32, (8S,11R,13S,14S,17S)-17-hydroxy-11-{4-[(E)-2-(4-methanesulphonylphenyl)vinyl]phenyl}-13-methyl-17-pentafluoroethyl-1,2,6,7,8,11,12,13,14,15,16,17-dodecahydrocyclopenta[a]phenanthren-3-one]
